The values below come from patent US10934286B2, “Heterocyclic sulfones as ROR gamma modulators” (BRISTOL-MYERS SQUIBB COMPANY, priority 2016, dated 2021).

Molecules are shown by their SMILES. Counter-ions that a name gives are not always drawn.

This assay deals with T1, RORγ receptor (Homo sapiens, UniProt P51449).
T1 construct: Jurkat pEx/Gal/hRORγ CLBD/HYG pG51uc/blast; expressed in transfected cells
T1 sequence (P51449 269-508 limits assumed): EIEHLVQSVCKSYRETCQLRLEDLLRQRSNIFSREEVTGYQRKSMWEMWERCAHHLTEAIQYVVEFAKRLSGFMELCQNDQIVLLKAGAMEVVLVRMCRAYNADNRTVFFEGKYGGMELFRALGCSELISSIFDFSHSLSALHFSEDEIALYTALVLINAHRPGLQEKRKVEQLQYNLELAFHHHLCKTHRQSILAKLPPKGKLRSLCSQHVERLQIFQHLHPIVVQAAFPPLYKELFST
Kind of assay: General RORγ Gal4 reporter assay (inverse agonist activity, inhibition of luminescence). It counts as cell-based. Particulars: Gal4-luciferase reporter in Jurkat cells stably over-expressing hRORγ LBD; overnight incubation; 40 μM to 0.67 nM. As for the experimental part: General RORγ Gal4 Reporter Assay Inverse agonist activity of potential ligands to RORγ was measured by inhibition of luminescence in a Gal4-luciferase reporter assay in Jurkat cells.
The following day, cells were lysed with 10 μL of Steady-Glo Luciferase Assay System (Promega Cat. No. EZ550), and analyzed immediately. IC50 values were determined.
(In general: In a reporter assay the amount or activity of a reporter protein is the signal.)
For the compound `N#CCCN1C(=O)CC[C@H]1C(=O)N1CCC2(S(=O)(=O)c3ccc(F)cc3)c3cnc(OCc4ccccc4)cc3CCC12` (single isomer, unassigned) [Example 38], the IC50 worked out at 4250 nM. For `CC(C)(O)CN1C(=O)CCN1C(=O)N1CCC2(S(=O)(=O)c3ccc(F)cc3)c3ccc(C(F)(C(F)(F)F)C(F)(F)F)nc3CCC12` (single isomer, unassigned) [Example 54, 1-(9b-((4-fluorophenyl)sulfonyl)-7-(perfluoropropan-2-yl)-2,3,3a,4,5,9b-hexahydro-1H-pyrrolo[3,2-f]quinoline-3-carbonyl)-2-(2-hydroxy-2-methylpropyl)pyrazolidin-3-one] the value was 16 nM; for `NC(=O)C12CCC(C(=O)N3CCC4(S(=O)(=O)c5ccc(F)cc5)c5ncc(C(F)(C(F)(F)F)C(F)(F)F)cc5CCC34)(CC1)CC2` (stereo not drawn) [Example 7], 83 nM.

Compound `CC(C)(O)CN1C(=O)[C@H](F)C[C@H]1C(=O)N1CCC2(S(=O)(=O)c3cccc(F)c3)c3cnc(C(F)(C(F)(F)F)C(F)(F)F)cc3CCC12` (stereo partly drawn) [Example 50] registered an IC50 of 14 nM. With `C[C@H]1C[C@H](C(=O)O)CC[C@H]1C(=O)N1CCC2(S(=O)(=O)c3ccc(F)cc3)c3ncc(C(F)(C(F)(F)F)C(F)(F)F)cc3CCC12` (single isomer, unassigned) [Example 23, trifluoroacetate], the half-inhibitory concentration (IC50) stood at 318 nM. Compared with the last compound, the IC50 is about 23-fold higher. Regarding `CC(C)(O)CN1C(=O)CCN1C(=O)N1CCC2(S(=O)(=O)c3ccc(F)cc3)c3cnc(C(F)(C(F)(F)F)C(F)(F)F)cc3CCC12` (stereo not drawn) [Example 55], the IC50 was found to be 31 nM. For `C[C@H]1C[C@H](C(=O)O)CC[C@H]1C(=O)N1CCC2(S(=O)(=O)c3ccc(F)cc3)c3ccc(C(F)(C(F)(F)F)C(F)(F)F)nc3CCC12` (stereo partly drawn) [Example 32] the value was 5 nM; for `CC(C)(O)CN1C(=O)CCN1C(=O)N1CCC2(S(=O)(=O)c3cccc(F)c3)c3cnc(C(F)(C(F)(F)F)C(F)(F)F)cc3CCC12` (stereo not drawn) [Example 57], 21 nM. For `O=C(CC1(O)CCS(=O)(=O)C1)N1CCC2(S(=O)(=O)c3ccccc3)c3ccc(C(F)(C(F)(F)F)C(F)(F)F)nc3CCC12` (stereo not drawn) [Example 11] the value was 21 nM; for `C[C@H]1C[C@H](C(=O)O)CC[C@H]1C(=O)N1CCC2(S(=O)(=O)c3ccc(F)cc3)c3cnc(C(F)(C(F)(F)F)C(F)(F)F)cc3CCC12` (stereo partly drawn) [Example 30], 51 nM; for `CC(C)(O)CC(=O)N1CCC2(S(=O)(=O)c3ccccc3)c3ccc(C(F)(C(F)(F)F)C(F)(F)F)nc3CCC12` (stereo not drawn) [Example 18], 30 nM. In the case of `O=C(C1CCS(=O)(=O)CC1)N1CCC2(S(=O)(=O)c3cccc(F)c3)c3cnc(C(F)(C(F)(F)F)C(F)(F)F)cc3CCC12` (stereo not drawn) [Example 15], the IC50 amounted to 8 nM. This IC50 is about 3.8-fold lower than that of the compound before. As for `N#CCCN1C(=O)CC[C@H]1C(=O)N1CCC2(S(=O)(=O)c3ccccc3)c3ccc(C(F)(C(F)(F)F)C(F)(F)F)nc3CCC12` (stereo partly drawn) [Example 19], the figure is 13 nM; as for `CC(C)(O)CN1C(=O)[C@H](F)C[C@H]1C(=O)N1CCC2(S(=O)(=O)c3cccc(F)c3)c3ccc(C(F)(C(F)(F)F)C(F)(F)F)nc3CCC12` (stereo partly drawn) [Example 48], 26 nM; as for `CC(C)(O)CN1C(=O)[C@H](F)C[C@@H]1C(=O)N1CCC2(S(=O)(=O)c3ccc(F)cc3)c3ccc(C(F)(C(F)(F)F)C(F)(F)F)nc3CCC12` (single isomer, unassigned) [Example 44], 168 nM.

What is called IC50 is the concentration needed to halve the response being measured.
